Experiments:
intact ZIKV particles [1] = test: Direct ELISA of biotinylated peptides vs intact ZIKV particles; type: binding, Zika virus (ZIKV); conditions: dose-response curves
Procedure: (§1) To optimize all parameters of the direct ELISA protocol, Pierce 96-Well Polystyrene Plates, (ThermoFisher Scientific) were coated overnight at 4° C. with different concentrations of intact virus particles (ZIKV or DENV). The intact virus particles were diluted using 100 mM NaHCO3, pH 9.6, and aliquots of 100 μL were dispensed into each well of the plate using a multichannel pipette. This buffer pH assured a strong hydrophobic binding interaction between polystyrene and virus particles.
(§2) Intact particles both ZIKV and DENV were provided by Dr. Watkins group (University of Miami, Dep. of Pathology). The samples were controlled and counted by focus forming assay and RT-PCR, the details were reported in a previous work (Magnani et al., 2017). The Intact particles of ZIKV were inactivated using gamma irradiation. Assay biohazardous steps were carried out according to standard safety procedures.
After coating the plates overnight, the intact virus particles were removed by washing five times with the washing buffer (PBST) 10 mM PBS pH 7.4, 0.1% Tween-20, using an automated plate washer (MultiWash+, Molecular Devices, Sunnyvale, Calif.). Then, the plates were blocked with 200 μL of blocking buffers while shaking at 300 rpm at room temperature. The blocking buffers used were: Pierce™ Protein-Free (PBS) Blocking Buffer (PF), Blocker™ BLOTTO in TBS, SuperBlock™ Blocking Buffer, Blocker™ BSA (1×) in PBS. All blocking buffer were from ThermoFisher Scientific.
After 2 h the blocking buffers were removed using the same washing procedure mentioned above. 100 μL-aliquots of several dilutions of peptides biotinylated in 10 mM PBS pH 7.4 were placed in each well and incubated for 2 h while shaking at 300 rpm at room temperature. After the incubation, the unreacted peptides were removed by using the plate washer with the same settings. Then, 100 μL-aliquots of streptavidin-HRP (ThermoFisher Scientific) at a concentration of 20 ng/mL were added into each well and incubated for 30 min at room temperature without shaking. After the incubation, excess streptavidin-HRP was removed and the wells were washed with the plate washer five times using the washing buffer. Finally, 100 μL-aliquots of the Ultra TMB-ELISA Substrate Solution (ThermoFisher Scientific) were added and after 10 min the reaction was stopped by adding 100 μL aliquots of the TMB stop solution (SeraCare). The emission (450 nm) was read using a microplate reader (Clariostar Optima; BMG Labtech, Ortenberg, Germany).
The corresponding blank signals in triplicates were obtained by using all reagents without peptides. The blank signal was then subtracted to the average absorbance values for triplicate wells of each test. […]

[2] = tested on: three serotypes of DENV (DENV-1, -2 and -3); test: Direct ELISA cross-reactivity study, ZIKV vs DENV; type: binding, Dengue virus (DENV); conditions: all DENV serotypes; plates coated with 10^5 copies/mL of intact virus particles
Procedure: as §1, §2
(§3) The cross-reactivity among Flaviviruses is a key parameter to be tested for this assay. Using the same ELISA protocol, the three clamp peptides (C3, C6 and C7) with higher sensitivity versus the intact ZIKV particles where employed to test the ability to discriminate ZIKV from the three serotypes of DENV (DENV-1, -2 and -3).
(§4) The results shown in FIG. 4 were obtained by coating clear 96-well plates with a solution of 10^^5 copies/mL of intact virus particles. […]

intact ZIKV particles [3] = test: Direct ELISA matrix effect in urine and serum; type: binding, Zika virus (ZIKV); conditions: urine diluted 1:1, serum 1:10; 10^5 and 10^6 copies/mL ZIKV coated
Procedure: Usually, the presence of ZIKV in affected bodies is detected in biological fluids. Therefore, the analytical sensitivity of the selected peptides was tested in two biological matrices, namely, urine and serum. The matrix effect was investigated to understand how real biological fluids could modify the binding efficiency of the peptides.
FIG. 4 depicts the ELISA data using solutions of peptides with or without the urine and serum obtained coating clear 96-well plates with 10^^5 and 10^^6 copies/mL of intact ZIKV particles. Urine and serum were 1:1 and 1:10 diluted, respectively, with a concentrated peptide PBS solution (10 mM PBS, pH 7.4) to obtain a peptide final concentration of 0.5 μM for C3 and C6, 5 μM for C7 and 20 μM for mono-arm peptides (P2 and X1).

DENV-2 = test: Direct ELISA cross-reactivity study, DENV-2; type: binding, Dengue virus (DENV); conditions: plates coated with 10^5 copies/mL of intact virus particles
Procedure: as §1, §2, §3, §4

DENV-3 = test: Direct ELISA cross-reactivity study, DENV-3; type: binding, Dengue virus (DENV); conditions: plates coated with 10^5 copies/mL of intact virus particles
Procedure: as §1, §2, §3, §4

Row | Substance | dynamic range width (orders of magnitude) (intact ZIKV particles [1]) | signal decrease, DENV relative to ZIKV [2] | performance in urine and serum (intact ZIKV particles [3]) | signal decrease, DENV-2 relative to ZIKV (DENV-2) [%] | signal decrease, DENV-3 relative to ZIKV (DENV-3) [%]
1 | C3: clamp peptide: WPWIGT (18) - bridge GPGCCGPG (32) - KRNATP (26) (WPWIGTGPGCCGPGKRNATP; C3 Binds to Active Site 2; Bridge peptide; C3 Binds to Active Site 1) | three-order of magnitude dynamic range | around 70% | better performance in urine than serum | – | –
2 | C-SWPGQ (CSWPGQ; P1) [mono-arm pentapeptide with N-terminal cysteine] | one order of magnitude dynamic range | – | – | – | –
3 | C6: clamp peptide: AGRRP (20) - bridge GPGCCGPG (32) - LRGHA (25) (AGRRPGPGCCGPGLRGHA; C5 Binds to Active Site 2; Bridge peptide; C2 Binds to Active Site 1) | three-order of magnitude dynamic range | – | strong decrease in the signal | 45 | 55
4 | C7: clamp peptide: MDSPIK (22) - bridge GPGCCGPG (32) - KRNATP (26) (MDSPIKGPGCCGPGKRNATP; C7 Binds to Active Site 2; Bridge peptide; C3 Binds to Active Site 1) | three-order of magnitude dynamic range | around 70% | best performance among the three clamp peptides, having higher signals in serum than in urine | – | –
